ChEMBL document CHEMBL4342507, “Targeting YAP Degradation by a Novel 1,2,4-Oxadiazole Derivative via Restoration of the Function of the Hippo Pathway” (ACS Med Chem Lett, 2020)
Calls of active or inactive are those of the source.

Legend:
PC-3 [1] = experiment: Downregulation of TAZ protein expression in human PC3 cells at 0.25 to 1.5 uM measured after 24 to 48 hrs by immunoblotting analysis; assay type: functional, cell-based
PC-3 [2] = experiment: Cytotoxicity against human PC3 cells assessed as reduction in cell viability measured after 72 hrs by MTT assay; assay type: functional, cell-based
PC-9 [3] = experiment: Cytotoxicity against human PC9 cells assessed as reduction in cell viability at 0.2 to 1.2 uM by MTT assay; assay type: functional, cell-based; conditions: TDE = time-dependent effect
Mus musculus = experiment: Downregulation of YAP protein expression in tumor of athymic Nude-Foxn1nu BALB/c mouse xenografted with human MDA-MB-231 cells at 200 mg/kg, po administered once daily via gavage for 40 days by immunoblotting analysis; assay type: functional, organism-based
[4] = target: T1, Serine/threonine-protein kinase LATS1 (Homo sapiens) (UniProt O95835); experiment: Activation of LATS1 in human MDA-MB-231 cells assessed as induction of YAP degradation by measuring suppression of YAP protein expression at 0.25 to 1.5 uM measured after 12 to 24 hrs by immunoblotting analysis; assay type: cell-based
T1 sequence (whole entry): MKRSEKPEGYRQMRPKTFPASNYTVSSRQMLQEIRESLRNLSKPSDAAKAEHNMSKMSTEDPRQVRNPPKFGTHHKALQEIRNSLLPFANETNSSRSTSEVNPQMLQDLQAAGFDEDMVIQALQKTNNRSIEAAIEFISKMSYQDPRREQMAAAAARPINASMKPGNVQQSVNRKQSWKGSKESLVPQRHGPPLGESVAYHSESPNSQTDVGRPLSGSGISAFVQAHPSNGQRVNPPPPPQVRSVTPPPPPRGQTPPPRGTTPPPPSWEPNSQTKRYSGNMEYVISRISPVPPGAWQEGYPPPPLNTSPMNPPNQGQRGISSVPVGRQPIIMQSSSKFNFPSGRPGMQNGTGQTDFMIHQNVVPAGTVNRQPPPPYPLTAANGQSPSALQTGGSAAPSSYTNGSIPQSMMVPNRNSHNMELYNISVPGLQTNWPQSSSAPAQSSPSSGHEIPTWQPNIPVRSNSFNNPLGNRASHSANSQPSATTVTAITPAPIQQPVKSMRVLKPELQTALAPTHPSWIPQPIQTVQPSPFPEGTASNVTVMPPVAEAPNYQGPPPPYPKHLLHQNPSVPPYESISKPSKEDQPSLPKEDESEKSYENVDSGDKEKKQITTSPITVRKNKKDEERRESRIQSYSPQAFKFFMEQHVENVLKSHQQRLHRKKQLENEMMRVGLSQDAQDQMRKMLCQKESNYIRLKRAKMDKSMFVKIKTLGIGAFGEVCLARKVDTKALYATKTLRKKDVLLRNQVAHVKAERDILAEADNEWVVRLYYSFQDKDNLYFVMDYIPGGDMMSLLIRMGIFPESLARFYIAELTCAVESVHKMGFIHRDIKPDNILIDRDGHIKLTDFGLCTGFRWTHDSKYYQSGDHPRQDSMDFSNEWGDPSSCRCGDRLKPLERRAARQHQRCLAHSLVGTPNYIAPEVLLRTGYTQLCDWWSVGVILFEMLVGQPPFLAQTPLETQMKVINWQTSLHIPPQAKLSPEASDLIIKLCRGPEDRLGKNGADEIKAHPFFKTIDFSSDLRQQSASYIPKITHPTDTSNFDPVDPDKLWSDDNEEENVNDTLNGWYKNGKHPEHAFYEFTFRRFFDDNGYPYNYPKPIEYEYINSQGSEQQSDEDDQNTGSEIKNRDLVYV

[5] = target: T1, Serine/threonine-protein kinase LATS1 (Homo sapiens); experiment: Activation of LATS1 in human […] cells assessed as increase in YAP phosphorylation at Ser397 at 0.25 to 1.5 uM measured after 12 to 24 hrs by immunoblotting analysis; assay type: cell-based
MCF7 = experiment: Cytostatic activity against human MCF7 cells assessed as cell viability at concentration of greater than IC50 measured up to 72 hrs by MTT assay; assay type: functional, cell-based
PC-9 [6] = experiment: Cytostatic activity against human PC9 cells assessed as cell viability at concentration of greater than IC50 measured up to 72 hrs by MTT assay; assay type: functional, cell-based
[7] = Acute toxicity in athymic Nude-Foxn1nu BALB/c mouse xenografted with human MDA-MB-231 cells assessed as effect on blood urea nitrogen level at 200 mg/kg, po administered once daily via gavage for 14 days; assay type: organism-based; conditions: in vivo, 336 h
[8] = target: T1, Serine/threonine-protein kinase LATS1 (Homo sapiens); experiment: Activation of LATS1 in human PC9 cells assessed as induction of YAP degradation by measuring suppression of YAP protein expression at 0.25 to 1.5 uM measured after 12 to 24 hrs by immunoblotting analysis; assay type: cell-based
[9] = target: T1, Serine/threonine-protein kinase LATS1 (Homo sapiens); experiment: Activation of LATS1 in human PC9 cells assessed as increase in YAP phosphorylation at Ser397 at 0.25 to 1.5 uM measured after 24 to 48 hrs by immunoblotting analysis; assay type: cell-based
[10] = target: T1, Serine/threonine-protein kinase LATS1 (Homo sapiens); experiment: Activation of LATS1 in human MDA-MB-231 cells assessed as increase in phosphorylation at Ser909 residue measured after 24 hrs by Western blot analysis; assay type: cell-based
MDA-MB-231 [11] = experiment: Effect on MOB expression in human MDA-MB-231 cells at 0.25 to 1.5 uM measured after 24 hrs by Western blot analysis; assay type: functional, cell-based
[12] = target: T1, Serine/threonine-protein kinase LATS1 (Homo sapiens); experiment: Activation of LATS1 in triple-negative human SUM159 cells assessed as effect on YAP mRNA level at 0.25 to 1 uM measured after 12 hrs by Trizol reagent based RT-PCR analysis
[13] = target: Serine/threonine-protein kinase 3/4 (Homo sapiens) (UniProt Q13043+Q13188); experiment: Activation of MST1/2 in human PC3 cells assessed as effect on phosphorylation at T183/T180 residues at 0.25 to 1.5 uM measured after 24 hrs by Western blot analysis; assay type: cell-based
Chain of Serine/threonine-protein kinase 3/4 (Homo sapiens) (Q13043 whole entry, looked up): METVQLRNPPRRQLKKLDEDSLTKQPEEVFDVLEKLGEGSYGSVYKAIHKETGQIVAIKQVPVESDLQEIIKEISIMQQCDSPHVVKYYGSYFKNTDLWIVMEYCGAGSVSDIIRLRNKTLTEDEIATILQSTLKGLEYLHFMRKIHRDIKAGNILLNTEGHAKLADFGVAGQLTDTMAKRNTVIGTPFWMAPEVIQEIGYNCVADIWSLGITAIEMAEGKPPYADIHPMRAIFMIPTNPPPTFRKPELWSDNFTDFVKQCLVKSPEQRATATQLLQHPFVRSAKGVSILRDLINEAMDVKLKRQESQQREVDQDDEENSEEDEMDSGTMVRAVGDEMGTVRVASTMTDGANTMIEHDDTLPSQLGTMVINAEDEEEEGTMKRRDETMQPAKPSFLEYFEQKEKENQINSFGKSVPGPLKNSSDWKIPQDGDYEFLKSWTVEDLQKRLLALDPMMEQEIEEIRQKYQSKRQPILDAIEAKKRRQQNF
Chain of Serine/threonine-protein kinase 3/4 (Homo sapiens) (Q13188 whole entry, looked up): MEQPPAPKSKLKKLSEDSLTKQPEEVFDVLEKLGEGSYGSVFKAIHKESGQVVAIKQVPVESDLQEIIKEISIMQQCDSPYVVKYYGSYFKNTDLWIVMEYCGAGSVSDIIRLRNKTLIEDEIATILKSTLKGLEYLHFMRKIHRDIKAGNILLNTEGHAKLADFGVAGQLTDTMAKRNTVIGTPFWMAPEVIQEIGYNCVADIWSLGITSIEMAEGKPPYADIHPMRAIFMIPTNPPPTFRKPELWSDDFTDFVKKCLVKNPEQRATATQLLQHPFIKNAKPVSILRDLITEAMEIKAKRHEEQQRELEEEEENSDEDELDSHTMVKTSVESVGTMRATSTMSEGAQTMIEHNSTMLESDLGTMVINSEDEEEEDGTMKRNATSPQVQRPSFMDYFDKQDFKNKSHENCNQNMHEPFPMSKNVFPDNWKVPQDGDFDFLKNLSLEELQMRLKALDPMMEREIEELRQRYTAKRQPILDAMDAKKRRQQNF

PC-3 [14] = experiment: Effect on MST2 expression in human PC3 cells at 0.25 to 1.5 uM measured after 24 hrs by Western blot analysis; assay type: functional, cell-based
[15] = target: T1, Serine/threonine-protein kinase LATS1 (Homo sapiens); experiment: Activation of LATS1 in triple-negative human SUM159 cells assessed as induction of YAP degradation by measuring suppression of YAP protein expression at 0.25 to 1 uM measured after 12 hrs in presence of 10 uM proteosomal inhibitor, MG132 by Western blot analysis
MDA-MB-231 [16] = experiment: Cytotoxicity against human MDA-MB-231 cells assessed as reduction in cell viability measured after 72 hrs by MTT assay; assay type: functional, cell-based
[17] = Acute toxicity in athymic Nude-Foxn1nu BALB/c mouse xenografted with human MDA-MB-231 cells assessed as effect on serum total cholesterol level level at 200 mg/kg, po administered once daily via gavage for 14 days; assay type: organism-based; conditions: in vivo, 336 h
[18] = target: T1, Serine/threonine-protein kinase LATS1 (Homo sapiens); experiment: Activation of LATS1 in human SUM159 cells assessed as increase in YAP phosphorylation at Ser397 at 0.25 to 1.5 uM measured after 24 to 48 hrs by immunoblotting analysis; assay type: cell-based
[19] = target: T1, Serine/threonine-protein kinase LATS1 (Homo sapiens); experiment: Activation of LATS1 in human SUM159 cells assessed as increase in YAP phosphorylation at Ser397 at 0.25 to 1.5 uM measured after 12 to 24 hrs by immunoblotting analysis; assay type: cell-based

CC(=O)Nc1ccc(NC(=O)Nc2cccc(-c3nc(-c4ccc(NC(=O)c5cccnc5)cc4Cl)no3)c2)cc1C(F)(F)F
inactive: inhibition (PC-3 [1]) | Activity [9] | Activity (MDA-MB-231 [11]) | Activity [12] | Activity [13] | Activity (PC-3 [14]) | Activity [15] | Activity [18]
active: Activity (PC-3 [2]) Dose-dependent effect | Activity (PC-9 [3]) Tde | inhibition (Mus musculus) | Activity [4] | Activity [5] | Activity (MCF7) | Activity (PC-9 [6]) | Activity [8] | Activity [10] Dose-dependent effect | Activity (MDA-MB-231 [16]) Dose-dependent effect | Activity [19]
400 to 800 nM: IC50 (PC-3 [2]; PC-3, 72 h) | IC50 (MDA-MB-231 [16]; MDA-MB-231, 72 h)
Non-Toxic: Activity [7] | Activity [17]
